From the NIST ThermoML archive (doi:10.1021/je900414p)

Assay: xn = mol fraction of the nth substance listed
Conditions: Liquid

CCOS(=O)(=O)[O-].CCn1cc[n+](C)c1 [1-ethyl-3-methylimidazolium ethyl sulfate] + CCO
mass density [kg/m3]
Conditions	100 kPa	2500 kPa	5000 kPa	10000 kPa	15000 kPa	20000 kPa	25000 kPa	30000 kPa	35000 kPa
333.15 K, x1 = 0.05056	826.91	829.15	831.49	835.97	840.22	844.27	848.14	851.85	855.41
333.15 K, x1 = 0.103	885.77	887.83	889.93	893.99	897.89	901.61	905.17	908.61	911.93
333.15 K, x1 = 0.1247	907.28	909.17	911.19	915.1	918.84	922.44	925.91	929.24	932.47
333.15 K, x1 = 0.2126	977.1	978.86	980.64	984.14	987.5	990.73	993.88	996.92	999.88
333.15 K, x1 = 0.2919	1026.55	1027.68	1029.31	1032.48	1035.56	1038.53	1041.42	1044.25	1046.98
333.15 K, x1 = 0.3185	1039.85	1041.25	1042.83	1045.92	1048.93	1051.83	1054.66	1057.43	1060.13
333.15 K, x1 = 0.4198	1083.92	1085.39	1086.84	1089.7	1092.49	1095.2	1097.84	1100.42	1102.94
333.15 K, x1 = 0.4847	1106.62	1107.91	1109.29	1112.04	1114.72	1117.29	1119.85	1122.34	1124.77
333.15 K, x1 = 0.5713	1132.56	1133.8	1135.1	1137.7	1140.25	1142.73	1145.17	1147.56	1149.9
333.15 K, x1 = 0.6827	1159.67	1160.86	1162.12	1164.6	1167.03	1169.4	1171.73	1174	1176.25
333.15 K, x1 = 0.7919	1181.63	1182.51	1183.7	1186.07	1188.4	1190.67	1192.91	1195.12	1197.28
333.15 K, x1 = 0.9317	1203.54	1204.68	1205.83	1208.1	1210.35	1212.54	1214.7	1216.82	1218.92
343.15 K, x1 = 0.05056	818.25	820.66	823.11	827.83	832.27	836.51	840.54	844.41	848.12
343.15 K, x1 = 0.103	877.67	879.77	881.99	886.23	890.27	894.14	897.85	901.43	904.85
343.15 K, x1 = 0.1247	899.5	901.47	903.69	907.82	911.68	915.39	918.99	922.46	925.77
343.15 K, x1 = 0.2126	969.67	971.48	973.32	976.91	980.38	983.71	986.96	990.09	993.12
343.15 K, x1 = 0.2919	1019.38	1020.57	1022.23	1025.5	1028.64	1031.72	1034.69	1036.01	1040.41
343.15 K, x1 = 0.3185	1032.6	1034.03	1035.67	1038.87	1041.94	1044.93	1047.86	1050.69	1053.46
343.15 K, x1 = 0.4198	1076.98	1078.52	1080	1082.95	1085.8	1088.59	1091.31	1093.96	1096.54
343.15 K, x1 = 0.4847	1099.67	1100.97	1102.41	1105.21	1107.95	1110.61	1113.23	1115.78	1118.28
343.15 K, x1 = 0.5713	1125.7	1126.98	1128.32	1131.01	1133.6	1136.16	1138.67	1141.1	1143.48
343.15 K, x1 = 0.6827	1152.86	1154.1	1155.37	1157.89	1160.38	1162.8	1165.19	1167.53	1169.82
343.15 K, x1 = 0.7919	1175	1175.81	1177.05	1179.48	1181.84	1184.18	1186.47	1188.72	1190.93
343.15 K, x1 = 0.9317	1196.87	1198.02	1199.21	1201.52	1203.82	1206.06	1208.26	1210.44	1212.58
